From ChEMBL document CHEMBL4406824, “Phenolic N-monosubstituted carbamates: Antitubercular and toxicity evaluation of multi-targeting compounds” (Eur J Med Chem, 2019) come the findings set out here.

≈ marks a conversion by molar mass, not a printed value.

The subject of data set [1] is Mycobacterium kansasii. Put plainly: Antimycobacterial activity against Mycobacterium kansasii 6509/96 after 21 days. Format: functional. The settings on record: 6509/96, 504 h.
Data set [2] deals with Mycobacterium kansasii. Put plainly: Antimycobacterial activity against Mycobacterium kansasii 235/80 after 21 days. The class given is functional. The settings on record: 235/80, 504 h.
In data set [3] the test system is Mycobacterium tuberculosis. The class given is functional. The conditions noted are these: H37Rv 331/88, 504 h.
Data set [4] relates to Mycobacterium tuberculosis. The class given is functional. The settings on record: H37Rv 331/88, 336 h.
The subject of data set [5] is Mycobacterium tuberculosis H37Rv. Put plainly: Inhibition of recombinant Mycobacterium tuberculosis H37Rv ICL1 expressed in Escherichia coli BL21 (DE3) cells at 10 uM using (+)-potassium Ds-threo-isocitrate as substrate by glyoxylate phenyl hydrazone formation assay relative to control.
The test system of data set [6] is Mycobacterium kansasii. Put plainly: Antimycobacterial activity against Mycobacterium kansasii 6509/96 after 7 days. The class given is functional. The settings on record: 6509/96, 168 h.
For data set [7], the system named is Mycobacterium kansasii. Put plainly: Antimycobacterial activity against Mycobacterium kansasii 235/80 after 7 days. The conditions noted are these: 235/80, 168 h. Format: functional.
Data set [8] deals with Mycobacterium kansasii. Put plainly: Antimycobacterial activity against Mycobacterium kansasii 6509/96 after 14 days. Format: functional. The conditions noted are these: 6509/96, 336 h.
A short description of the next data set: in vitro. The conditions noted are these: human, HepG2 cells.
Data set [9] has as its system Mycobacterium kansasii. In words: Antimycobacterial activity against Mycobacterium kansasii 235/80 after 14 days. The class given is functional. The settings on record: 235/80, 336 h.
Data set [10] relates to Mycobacterium avium. Put plainly: Antimycobacterial activity against Mycobacterium avium 330/88 after 14 days. The class given is functional. The conditions noted are these: 330/88, 336 h.
Data set [11] relates to Mycobacterium avium. In words: Antimycobacterial activity against Mycobacterium avium 330/88 after 21 days. Format: functional. The conditions noted are these: 330/88, 504 h.
In data set [12] the test system is Mycobacterium tuberculosis. In words: Antimycobacterial activity against Mycobacterium tuberculosis H37Ra ITM-M006710 after 48 hr by resazurin dye based microdilution method. Format: functional. The conditions noted are these: H37Ra ITM-M006710, 48 h. (In general: Resazurin is reduced to fluorescent resorufin, in cell work by metabolically active cells.)
Data set [13] concerns HepG2. In words: Cytostatic activity against human HepG2 cells preincubated for overnight in serum free medium followed by compound wash out and further incubated for 72 hrs in presence of serum by MTT assay. The class given is ADME, cell-based. For orientation: Tetrazolium assays rely on reduction of a dye to a coloured formazan, in cell work by metabolically active cells.

For data set [14], the system named is Mycolicibacterium smegmatis. Put plainly: Antimycobacterial activity against Mycobacterium smegmatis DSM 43465 after 120 hr by resazurin dye based microdilution method. The class given is functional. The conditions noted are these: DSM 43465, 120 h.
The subject of data set [15] is HepG2. Put plainly: Cytotoxicity against human HepG2 cells assessed as reduction in cell viability after overnight incubation by MTT assay. The class given is cell-based.
In the next data set the test system is Mycolicibacterium aurum. In words: Antimycobacterial activity against Mycobacterium aurum DSM 43999 after 72 hr by resazurin dye based microdilution method. Format: functional. The settings on record: DSM 43999, 72 h.

Description for in vitro: Selectivity index, ratio of IC50 for human HepG2 cells to MIC for antimycobacterial activity against Mycobacterium tuberculosis H37Rv

Consider `Nc1ccc(C(=O)O)c(O)c1` [AMINOSALICYLIC ACID], for which the MIC with Mycobacterium kansasii [1] is 500 µM (≈ 76.6 µg/mL); with Mycobacterium kansasii [2], more than 1000 µM; in [3], 62.5 µM (≈ 9.57 µg/mL); in [4], 62.5 µM (≈ 9.57 µg/mL); against Mycobacterium kansasii [6], 32 µM (≈ 4.9 µg/mL); against Mycobacterium kansasii [7] it was 125 µM (≈ 19.1 µg/mL). The MIC with Mycobacterium kansasii [8] amounted to 125 µM (≈ 19.1 µg/mL); in the data set with Mycobacterium kansasii [9], 1000 µM (≈ 153 µg/mL); against Mycobacterium avium [10] it was 32 µM (≈ 4.9 µg/mL); with Mycobacterium avium [11], 125 µM (≈ 19.1 µg/mL). The inhibition in [5] came out at 0%. The selectivity ratio in the data set “in vitro” was 35.8.

For `Oc1ccc(Cl)cc1` [PARACHLOROPHENOL], the MIC with Mycobacterium kansasii [1] was more than 250 µM; in the data set on Mycobacterium kansasii [2], more than 250 µM; in [3] it was 250 µM (≈ 32.1 µg/mL); in data set [4] it was 125 µM (≈ 16.1 µg/mL); against Mycobacterium kansasii [6], 125 µM (≈ 16.1 µg/mL); in the data set with Mycobacterium kansasii [7], 250 µM (≈ 32.1 µg/mL). Besides, the MIC against Mycobacterium kansasii [8] is 250 µM (≈ 32.1 µg/mL); in the data set with Mycobacterium kansasii [9], more than 250 µM; against Mycobacterium avium [10], more than 250 µM; against Mycobacterium avium [11] it was more than 250 µM.

`O=C(NC12CC3CC(CC(C3)C1)C2)Oc1ccccc1C(=O)Nc1ccccc1`: the MIC was 250 µM (≈ 97.6 µg/mL) with Mycobacterium kansasii [1]; 250 µg/mL (≈ 640 µM) in data set [12]; 125 µM (≈ 48.8 µg/mL) against Mycobacterium kansasii [2]; 125 µM (≈ 48.8 µg/mL) in data set [3]; 250 µg/mL (≈ 640 µM) in data set [14]; 125 µM (≈ 48.8 µg/mL) in [4]. Besides, the minimal inhibitory concentration (MIC) with Mycobacterium kansasii [6] was 125 µM (≈ 48.8 µg/mL); against Mycobacterium kansasii [7], 125 µM (≈ 48.8 µg/mL); against Mycobacterium kansasii [8], 250 µM (≈ 97.6 µg/mL); against Mycobacterium kansasii [9], 125 µM (≈ 48.8 µg/mL); against Mycobacterium avium [10], 125 µM (≈ 48.8 µg/mL); against Mycolicibacterium aurum it was not below 250 µg/mL. The molecule also showed an MIC against Mycobacterium avium [11] of 125 µM (≈ 48.8 µg/mL). Further, the values for the IC50 in the data set with HepG2 [13] and with HepG2 [15] were 233 µM and more than 250 µM, respectively. Moreover, the inhibition in [5] turned out to be 9%. Besides, in “in vitro”, the selectivity ratio was more than 2.

With `O=C(NC1CCCCC1)Oc1ccc(Cl)cc1`, the MIC is 250 µM (≈ 63.4 µg/mL) against Mycobacterium kansasii [1]; 500 µg/mL (≈ 1970 µM) in data set [12]; 1000 µM (≈ 254 µg/mL) against Mycobacterium kansasii [2]; 500 µM (≈ 127 µg/mL) in data set [3]; not below 500 µg/mL in data set [14]; 500 µM (≈ 127 µg/mL) in data set [4]. Besides, the MIC against Mycobacterium kansasii [6] was 125 µM (≈ 31.7 µg/mL); with Mycobacterium kansasii [7], 250 µM (≈ 63.4 µg/mL); in the data set with Mycobacterium kansasii [8], 250 µM (≈ 63.4 µg/mL); in the data set with Mycobacterium kansasii [9], 500 µM (≈ 127 µg/mL); with Mycobacterium avium [10] it was 500 µM (≈ 127 µg/mL); against Mycolicibacterium aurum, not below 500 µg/mL. Further, the MIC against Mycobacterium avium [11] stood at 1000 µM (≈ 254 µg/mL). In addition, the IC50 in the data set with HepG2 [13] and in the data set on HepG2 [15] was more than 125 µM in each case. Besides, the inhibition in [5] was 16%. In addition, the selectivity ratio in the data set “in vitro” was more than 0.3.

Take `O=C(NC1CCCCC1)Oc1ccccc1C(=O)Nc1ccccc1`: the MIC with Mycobacterium kansasii [1] is 250 µM (≈ 84.6 µg/mL); in [12] it was 15.6 µg/mL (≈ 46.2 µM); with Mycobacterium kansasii [2], 250 µM (≈ 84.6 µg/mL); in data set [3], 125 µM (≈ 42.3 µg/mL); in data set [14], 15.6 µg/mL (≈ 46.2 µM); in data set [4], 125 µM (≈ 42.3 µg/mL). Moreover, the MIC against Mycobacterium kansasii [6] amounted to 125 µM (≈ 42.3 µg/mL); in the data set with Mycobacterium kansasii [7], 125 µM (≈ 42.3 µg/mL); in the data set with Mycobacterium kansasii [8], 250 µM (≈ 84.6 µg/mL); with Mycobacterium kansasii [9], 250 µM (≈ 84.6 µg/mL); in the data set with Mycobacterium avium [10], 125 µM (≈ 42.3 µg/mL); against Mycolicibacterium aurum, 15.6 µg/mL (≈ 46.2 µM). The molecule also had an MIC in the data set on Mycobacterium avium [11] of 125 µM (≈ 42.3 µg/mL). Further, the IC50 in the data set on HepG2 [13] stood at 51.5 µM; with HepG2 [15] it was 49 µM. In addition, the inhibition in [5] was 8%. Further, the selectivity ratio in “in vitro” was found to be 0.4.

With `O=C(Nc1ccccc1)Oc1ccccc1C(=O)Nc1ccccc1`, the MIC came out at 250 µM (≈ 83.1 µg/mL) against Mycobacterium kansasii [1]; 31.2 µg/mL (≈ 94 µM) in [12]; 250 µM (≈ 83.1 µg/mL) in the data set with Mycobacterium kansasii [2]; 125 µM (≈ 41.5 µg/mL) in data set [3]; 31.2 µg/mL (≈ 94 µM) in [14]; 125 µM (≈ 41.5 µg/mL) in [4]. For the same molecule, the MIC was determined as 125 µM (≈ 41.5 µg/mL) in the data set with Mycobacterium kansasii [6]; 125 µM (≈ 41.5 µg/mL) against Mycobacterium kansasii [7]; 250 µM (≈ 83.1 µg/mL) in the data set on Mycobacterium kansasii [8]; 250 µM (≈ 83.1 µg/mL) against Mycobacterium kansasii [9]; 125 µM (≈ 41.5 µg/mL) with Mycobacterium avium [10]; 31.2 µg/mL (≈ 94 µM) against Mycolicibacterium aurum. For the same molecule, 125 µM (≈ 41.5 µg/mL) was the least that counted as inhibitory against Mycobacterium avium [11] (MIC). Besides, the IC50 in the data set with HepG2 [13] worked out at 26.8 µM; in the data set on HepG2 [15] it was 57.6 µM. Also, the inhibition in [5] was found to be 5%. For the same molecule, the selectivity ratio in “in vitro” turned out to be 0.5.

As to `O=C(NCCc1ccccc1)Oc1ccccc1C(=O)Nc1ccccc1`, the minimum inhibitory concentration (MIC) in the data set with Mycobacterium kansasii [1] was determined as 250 µM (≈ 90.1 µg/mL); in [12] it was 15.6 µg/mL (≈ 43.3 µM); against Mycobacterium kansasii [2], 250 µM (≈ 90.1 µg/mL); in data set [3] it was 125 µM (≈ 45.1 µg/mL); in data set [14] it was 31.2 µg/mL (≈ 86.7 µM); in data set [4], 125 µM (≈ 45.1 µg/mL). The MIC turned out to be 125 µM (≈ 45.1 µg/mL) in the data set on Mycobacterium kansasii [6]; 125 µM (≈ 45.1 µg/mL) with Mycobacterium kansasii [7]; 250 µM (≈ 90.1 µg/mL) in the data set with Mycobacterium kansasii [8]; 250 µM (≈ 90.1 µg/mL) against Mycobacterium kansasii [9]; 125 µM (≈ 45.1 µg/mL) in the data set on Mycobacterium avium [10]; 31.2 µg/mL (≈ 86.7 µM) with Mycolicibacterium aurum. This molecule yielded an MIC in the data set with Mycobacterium avium [11] of 125 µM (≈ 45.1 µg/mL). The IC50 with HepG2 [13] is 55.6 µM; with HepG2 [15], more than 125 µM. The inhibition in data set [5] came out at 6%. In addition, the selectivity ratio in “in vitro” was more than 1.

As usually defined, the MIC is the lowest concentration found to suppress growth. A high value points to a need for much substance. A word on the inhibition: it is how much of the control response was suppressed. Usually IC50 stands for the concentration needed to halve the response being measured.
